From PubChem BioAssay AID1508610 (The Scripps Research Institute Molecular Screening Center, 2020)
Calls of active or inactive are those of the source. The rule behind the calls is not given here.

biological target: G-protein coupled receptor 151 (Homo sapiens) (UniProt Q8TDV0); assay: GPR151 activator potency, dose response, cell-based (AID 1508610); conditions: cell-based GPR151 activation reporter
Sequence (Q8TDV0 whole entry, looked up): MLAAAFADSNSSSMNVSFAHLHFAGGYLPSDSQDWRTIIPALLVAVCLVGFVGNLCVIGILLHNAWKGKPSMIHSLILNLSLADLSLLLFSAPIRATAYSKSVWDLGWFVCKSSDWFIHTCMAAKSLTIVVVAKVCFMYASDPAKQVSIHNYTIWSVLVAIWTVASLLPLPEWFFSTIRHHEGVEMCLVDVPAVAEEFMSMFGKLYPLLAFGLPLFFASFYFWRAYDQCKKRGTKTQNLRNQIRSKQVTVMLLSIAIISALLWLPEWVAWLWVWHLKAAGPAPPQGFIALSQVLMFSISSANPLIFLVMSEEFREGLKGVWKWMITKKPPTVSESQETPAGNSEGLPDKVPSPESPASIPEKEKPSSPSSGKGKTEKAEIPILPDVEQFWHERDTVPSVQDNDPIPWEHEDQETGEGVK

Row | SMILES | EC50
1 | CC1CCN(S(=O)(=O)c2ccc(NC(=O)CSc3nc4ccccc4o3)cc2)CC1 | inactive
2 | Cc1ccc(/C(=N/NC(=O)Cc2ccccc2)C23CN4CN(CN(C4)C2)C3)cc1 | > 28 µM (inactive)
3 | Cc1nc2nc(SCC(=O)N3CCOCC3)nn2c(C)c1Cc1ccccc1 | > 28 µM (inactive)
4 | OCCC1CN(Cc2ccc3nonc3c2)CCN1Cc1ccc(F)c(F)c1 (stereo not given) | > 28 µM (inactive)
5 | S=c1nc2c(n[nH]1)c1ccccc1n2CCc1ccccc1 | > 33 µM (inactive)
6 | CCOC(=O)COc1ccc2c(=O)c(Oc3cccc(OC)c3)coc2c1 | > 28 µM (inactive)
7 | CC(C)CC(C(=O)Nc1cccc([N+](=O)[O-])c1)N1C(=O)c2ccccc2C1=O (stereo not given) | > 28 µM (inactive)
8 | COC(=O)c1cccc(NC(=O)c2cccc(Br)c2)c1C | > 28 µM (inactive)
9 | COc1ccccc1OCC(=O)Nc1ccc(S(=O)(=O)NC(C)=O)cc1 | > 28 µM (inactive)
10 | COc1ccc(-c2cnn(-c3ccc(C(=O)O)cc3)c2)cc1 | > 28 µM (inactive)
11 | N#C/C(=C\c1c(Oc2ccc(Cl)cc2Cl)nc2ccccn2c1=O)C(N)=O | > 27.9 µM (inactive)
12 | COc1cccc(-c2ccc(SCC(=O)Nc3cc(C)on3)nn2)c1 | > 28.3 µM (inactive)
13 | Cc1cccc(N2CCN(C(=O)c3ccc(S(=O)(=O)c4ccc(F)cc4)c([N+](=O)[O-])c3)C(C)C2)c1 (stereo not given) | > 23.3 µM (inactive)
14 | CCOc1ccc(/C=C2\SC(=S)N(CC(=O)Nc3ccc(O)cc3)C2=O)cc1 | > 28.4 µM (inactive)
15 | CSC1=NSC2=NC(=O)/C(=C\c3ccc([N+](=O)[O-])cc3)C(=N)N12 | > 28 µM (inactive)
16 | COc1ccc(-c2cn3cc(C(=O)O)ccc3n2)cc1 | > 29.2 µM (inactive)
17 | CCC(C)C1N=C2c3ccccc3N=C(SCC(=O)N3CC(C)CC(C)C3)N2C1=O (stereo not given) | > 29.4 µM (inactive)
18 | O=C(O)c1cccc(COc2ccc(CO)cc2Br)c1 | > 28 µM (inactive)
19 | O=C(Nc1ccc(NC(=O)c2cccc3c(Br)cccc23)cc1)c1ccco1 | > 24.4 µM (inactive)
20 | COC(=O)CN1C(=O)S/C(=C\c2cc(Br)c(OC)c(OC)c2)C1=O | > 28 µM (inactive)
21 | COc1ccc(CCn2c(=S)[nH]c3cc(C(=O)N4CCOCC4)ccc3c2=O)cc1OC | > 22.2 µM (inactive)
22 | Cc1ccc(C(=O)NN=C2CCC(C)CC2)cc1 (stereo not given) | > 28 µM (inactive)
23 | O=C(O)CCCN=C1CCc2ccccc2N1 | > 43.2 µM (inactive)
24 | Cc1csc2ncc(C(=O)N3CCc4ccccc43)c(=O)n12 | > 28 µM (inactive)
25 | CC[C@@H](C(=O)[C@@H](C)[C@@H](O)[C@H](C)CCc1ccc(C)c(O)c1C(=O)O)[C@H]1O[C@](CC)([C@H]2CC[C@](O)(CC)[C@H](C)O2)C[C@@H]1C | > 28 µM (inactive)

Row | SMILES | EC50
26 | COc1ccc2nccnc2c1[N+](=O)[O-] | > 40 µM (inactive)
27 | Cn1c2c(c(=O)n(C)c1=O)C(c1cccc(F)c1)C1=C(CC(C)(C)CC1=O)N2 (stereo not given) | > 27.8 µM (inactive)
28 | Cn1c(=O)c2c(SCCC3OCCO3)nc(C3CCCCC3)nc2n(C)c1=O | > 27.6 µM (inactive)
29 | O=C(COc1ccccc1Cl)Nc1nccs1 | > 39.1 µM (inactive)
30 | Cc1nc2ccccc2n1CC(=O)N1CCc2c(nc(N3CCCC3)[nH]c2=O)C1 | > 28 µM (inactive)
31 | Nc1nc2n(n1)C(c1ccccc1Cl)CC(c1ccc(F)cc1)N2 (stereo not given) | > 28 µM (inactive)
32 | Cc1ccc(S(=O)(=O)Cn2nnnc2CN2CCN(c3ccccc3F)CC2)cc1 | > 28 µM (inactive)
33 | COc1cc(N)c(Cl)cc1C(=O)OCCOc1ccc(Br)cc1 | > 30.8 µM (inactive)
34 | CCCCNc1c(N2CCCC(C(=O)OCC)C2)c(=O)c1=O (stereo not given) | > 28 µM (inactive)
35 | C=CCN1/C(=C\C=C2\C=Nc3ccc(Br)cc32)C=Cc2ccc(C)cc21 | > 21.9 µM (inactive)
36 | Nc1ncc(Br)cc1S(=O)(=O)N1CCN(C2CCCCC2)CC1 | > 28 µM (inactive)
37 | CCCCNC(=O)/C(=C/c1ccccc1)NC(=O)/C=C/c1ccco1 | > 28 µM (inactive)
38 | O=C(O)c1ccc(COc2ccc3c(c2)CCC3)o1 | > 28 µM (inactive)
39 | O=c1oc(Nc2cccc(C(F)(F)F)c2)nc2ccccc12 | > 28.4 µM (inactive)
40 | N=C1c2ccccc2CN1CC(=O)c1ccccc1 | > 27.4 µM (inactive)
41 | O=C1c2ccccc2C(Nc2ccc(Cl)cc2)N1c1cccnc1 (stereo not given) | > 28 µM (inactive)
42 | N#Cc1ccsc1NC(=O)/C=C/c1ccccc1 | > 28.6 µM (inactive)
43 | O=C1C2C3C=CC(C3)C2C(=O)N1Nc1c(Cl)cc(Cl)cc1Cl (stereo not given) | > 28 µM (inactive)
44 | N#Cc1cccc(C(=O)NC2CCCC2)c1 | > 31.4 µM (inactive)
45 | CCc1ccc2c(c1)/C(=C/C(=O)c1cccs1)C(=O)N2 | > 28 µM (inactive)
46 | CC(=O)Oc1cccc(N2C(=O)C3C4c5ccccc5C(C)(c5ccccc54)C3C2=O)c1 (stereo not given) | 1e-05 µM
47 | CC(C)N1CCN(Cc2ccc(OC3CCCC3)cc2)CC1CCO (stereo not given) | 0.00143 µM
48 | Cc1ccc2nc(-c3ccccc3)[nH]c2c1 | > 38.4 µM (inactive)
49 | COc1cc([N+](=O)[O-])ccc1NC(=O)Nc1ccc(Cl)cc1F | > 28 µM (inactive)
50 | COc1ccc(CCNC(=O)/C=C\C(=O)O)cc1OC | > 28 µM (inactive)

Row | SMILES | EC50
51 | CC(C)c1ccc2oc3nc(N)c(C(=O)O)cc3c(=O)c2c1 | > 28 µM (inactive)
52 | O=C(Nc1nnc(SCc2cccc(F)c2)s1)C1CC1 | > 29 µM (inactive)
53 | O=C(O)CCn1cc(C=C2C(=O)NC(=O)NC2=O)c(-c2ccc(Br)cc2)n1 | > 28 µM (inactive)
54 | Cc1cccc(-n2ncc3c(Nc4ccc(F)cc4F)ncnc32)c1 | > 26.9 µM (inactive)
55 | O=C(Cn1[nH]c(=O)c2ccccc2c1=O)Nc1cccnc1 | 0.00579 µM
56 | COc1ccc(CCN2C(=O)c3ccc(Oc4ccc(Nc5ncnc6ccccc56)cc4)cc3C2=O)cc1OC | 2.42 µM
57 | CC(=O)Nc1ccc(Nc2ccnc(N3CCc4ccccc4C3)n2)cc1 | inactive
58 | O=[N+]([O-])c1ccc(NS(=O)(=O)Cc2ccccc2)c([N+](=O)[O-])c1 | > 28 µM (inactive)
59 | Cc1ccccc1-n1c(=O)cc(NCCCn2ccnc2)[nH]c1=O | > 28 µM (inactive)
60 | COc1cccc(/C=N/NC(=O)C(C)Nc2ccc(C)cc2)c1O (stereo not given) | > 28 µM (inactive)
61 | CC(C)c1ccc(N(CC(=O)NCCSc2ccccc2)S(C)(=O)=O)cc1 | > 28 µM (inactive)
62 | Cc1ccc(C(=O)Nc2nc(Cl)c(C#N)s2)cc1 | > 28.2 µM (inactive)
63 | CC1(C)Cc2cccc(OCC(=O)NC3=NCCS3)c2O1 | > 29.3 µM (inactive)
64 | CC(=O)c1cccc(NC(=O)CC2S\C(=N/N=C/C=C/c3ccccc3)NC2=O)c1 (stereo not given) | > 28 µM (inactive)
65 | CCN(CC)C(=S)SCCC(=O)NC(=O)Nc1ccc(F)cc1 | > 28 µM (inactive)
66 | O=C1NC(=O)C(=Cc2cc(Br)ccc2OCc2ccccc2F)C(=O)N1 | > 28 µM (inactive)
67 | Cc1ccc(C(=O)Nc2ncc([N+](=O)[O-])s2)cc1 | > 31.4 µM (inactive)
68 | Cc1ccc(C(=O)Nc2cccc(C(=O)O)c2)cc1 | > 32.6 µM (inactive)
69 | Cc1nc2c(C(=O)NCc3ccccn3)cnn2c(C)c1Cc1cccc(Cl)c1 | > 29.5 µM (inactive)
70 | C[C@H]1NC(=O)[C@H]2CN(C(=O)NCc3ccccc3)CCN2C1=O | > 28 µM (inactive)
71 | O=C1CC(c2ccc(O)cc2)Oc2ccccc21 (stereo not given) | > 28 µM (inactive)
72 | Cc1ccc2cc(CN(CC3CCCO3)C(=O)C3CCC3)c3nnnn3c2c1 (stereo not given) | > 28 µM (inactive)
73 | Cc1ccc(-c2nnc3sc(NC(=O)CC(C)C)nn23)cc1 | > 28 µM (inactive)
74 | COc1ccc(-c2noc(CCC(=O)Nc3ccc(C)c(C)c3)n2)cc1 | > 28 µM (inactive)
75 | O=C(Nc1ncc([N+](=O)[O-])s1)c1ccccc1F | > 34 µM (inactive)

Row | SMILES | EC50
76 | Cc1ccc(-c2csc3nnc(SCC(=O)NC(N)=O)n23)cc1 | > 29 µM (inactive)
77 | COC(=O)c1ccc(CN2CCN(Cc3ccc(OC)c(C)c3)C(CCO)C2)cc1 (stereo not given) | > 28 µM (inactive)
78 | Cc1nn(-c2ccc(Nc3ccc(NC(=O)c4cccc(F)c4)cc3)nn2)c(C)c1C | inactive
79 | CCOc1ccccc1CN1CCN(Cc2cccc(OC)c2)CC1CCO (stereo not given) | > 28 µM (inactive)
80 | O=C(COc1ccc(C(=O)NCCc2ccccc2)cc1)Nc1ccccc1F | > 28 µM (inactive)
81 | CCC(NS(=O)(=O)c1ccc(Cl)c([N+](=O)[O-])c1)C12CC3CC(CC(C3)C1)C2 (stereo not given) | > 26.9 µM (inactive)
82 | CCOc1ccccc1NC(=O)N1CCC2(CC1)OCCO2 | > 28 µM (inactive)
83 | CN1CCN(c2ccc(-c3ccc(C(=O)NCCOc4ccccc4)s3)cc2)CC1 | > 27.7 µM (inactive)
84 | O=c1oc2ccccc2cc1-c1cn2ccccc2n1 | > 34.7 µM (inactive)
85 | O=C(COc1ccc(Cl)cc1Cl)Nc1ncn[nH]1 | > 28 µM (inactive)
86 | c1ccc(Oc2nc(NC3CC3)c3ncn(-c4ccsc4)c3n2)cc1 | inactive
87 | Nc1ncnc2c1ccn2[C@@H]1O[C@H](CO)[C@@H](O)[C@H]1O | 3.11 µM
88 | CCOC(=O)c1c(NC(=O)C(C)C)sc(C(C)=O)c1C | inactive
89 | CON(C)C(=O)c1ccc(OCc2ccnc(Cl)c2)cc1 | > 28 µM (inactive)
90 | CCOC(=O)c1c(NC(=O)C(C)Sc2cn(C)c3ccccc23)sc2c1CCCCC2 (stereo not given) | inactive
91 | COC(=O)c1ccc(C2C(C#N)=C(N)Oc3n[nH]c(C45CC6CC(CC(C6)C4)C5)c32)cc1 (stereo not given) | inactive
92 | Clc1nc(NCc2ccccc2)c2ncn(-c3ccccc3)c2n1 | > 28.1 µM (inactive)
93 | COc1ccc(C(=O)Nc2ccc(-n3nncc3C(C)(C)C)cc2)cc1 | > 31.7 µM (inactive)
94 | COc1ccccc1CN[C@H]1C[C@H]2C(=O)N[C@@H](CC(C)C)C(=O)N2C1 | > 28 µM (inactive)
95 | Cn1c(=O)c2c(nc(N3CCCCCC3)n2CCc2ccccc2)n(C)c1=O | > 27.9 µM (inactive)
96 | O=C(O)C1CCCN(c2ncnc3scc(-c4ccccc4)c23)C1 (stereo not given) | > 29.7 µM (inactive)
97 | CC[C@@H]1NC(=O)[C@H]2CN(C(=O)c3cccc(Cl)c3)CCN2C1=O | > 28 µM (inactive)
98 | Cc1ccc(NC(=O)C(CC(=O)O)C2CCCO2)cc1 (stereo not given) | > 28 µM (inactive)
99 | COc1ccc(C(=O)Nc2nc(C)cs2)c(OC)n1 | > 28 µM (inactive)
100 | C/C=C/C(=O)N(CC)c1ccccc1C | > 28.9 µM (inactive)
